The values below come from patent publication US10836735B2, “Compositions and methods for treating cancers” (CEDARS-SINAI MEDICAL CENTER, priority 2014, dated 2020).

The test system of series [1] is MIA PaCa-2 pancreatic cancer cells. The experiment in a line: Cell survival with GSK3β inhibitor, HDAC inhibitor and combination. Format: cell-based. Conditions: FIGS. 5-7. The source says: FIG. 7 depicts, in accordance with various embodiments of the invention, effect of combination of GSK3β inhibitor tideglusib and HDAC inhibitor Saha on cell survival in pancreatic cancer cells MIA PaCa-2.

Series [2] concerns MIA PaCa-2 pancreatic cancer cell line. Nature of the series: Western: EMT and cancer stemness markers. Conditions: MIA PaCa-2, 72. Format: cell-based. As for the experimental part: (§1) Cells were cultured in the presence or absence of different doses of ALB-185357 for 72 and protein levels measured by Western (FIG. 22A) and cell invasion measured in Matrigel Invasion Chambers (FIG. 22B).

In the next series the test system is Raji lymphoma cells. Nature of the series: Cell survival by counting cell number. It counts as cell-based. Conditions: 72. How it is done: (§2) Cells were cultured in the presence or absence of different doses of ALB-185357 for 72 and cell survival measured by MTT assay (FIGS. 17 and 18) or by counting cell number (FIG. 19).
In series [3] the test system is BxPC-3 pancreatic cancer cell line. Nature of the series: Cell survival by MTT assay. Format: cell-based. As for the experimental part:
Thus, the effect of ALB-185357 (a dual inhibitor of HDAC and GSK3β) represents an additional synergism to that observed with the combination of individual agents.
BxPC-3 pancreatic cancer cells were cultured in the presence or absence of different doses of ALB-188540 or ALB-185643 for 72 and cell survival measured by MTT assay.
(In general: Tetrazolium dyes change colour on reduction, which living cells bring about.)

The subject of series [4] is MIA PaCa-2 pancreatic cancer cell line. Nature of the series: Western: histone acetylation and GSK-3β phosphorylation/inhibition. It counts as cell-based. To be noted: MIA PaCa-2, 72. How it is done: Cells were cultured in the presence or absence of different doses of ALB-185357 for 72 and protein levels measured by Western.
In series [5] the test system is BT474 breast cancer cells. The experiment in a line: Cell survival by MTT assay. It counts as cell-based. Conditions: BT474, 72. As for the experimental part: as §2
Series [6] concerns hepatocellular carcinoma HepG2 cells. The experiment in a line: Cell survival by MTT assay. Conditions: HepG2, 72. Format: cell-based. As for the experimental part:
as §2

The subject of another series is KPC mice. Nature of the series: Survival of KPC mice with pancreatic adenocarcinoma. Format: in vivo. To be noted: 5 mg/Kg ip 3 times per week from age 8 weeks until death. How it is done:
KPC mice, which have Kras and p53 mutations and spontaneously develop pancreatic adenocarcinoma, were ip injected 3 times per week with 5 mg/Kg of ALB185357 from age 8 weeks until death.

Series [7] deals with MIA PaCa-2 pancreatic cancer cell line. Nature of the series: Cell invasion in Matrigel Invasion Chambers. Format: cell-based. Conditions: MIA PaCa-2, Matrigel Invasion Chambers. As for the experimental part:
as §1

In series [8] the test system is normal pancreatic ductal cells. The experiment in a line: Cell survival of normal cells by MTT assay. It counts as cell-based. Conditions: 72. How it is done: Cells were cultured in the presence or absence of different doses of ALB-185357 for 72 and cell survival measured by MTT assay.
Series [9] has as its system MIA PaCa-2 pancreatic cancer cell line. Nature of the series: Apoptosis by DNA fragmentation. Format: cell-based. Conditions: MIA PaCa-2, 72. As for the experimental part:
Dashed lane represents the expected additive effect (Significance between expected additive effect and observed effect is achieved at 2.4 uM).
MIA PaCa-2 cells were cultured in the presence or absence of different doses of ALB-185357 for 72 and apoptosis assessed by measuring DNA fragmentation.
MIA PaCa-2 cells were cultured in the presence or absence of different doses of ALB-185357 or gemcitabine at the low dose of 1 ng/ml for 72 and apoptosis assessed by measuring DNA fragmentation.

In the next series the test system is pdx1-Cre-LSL-Kras mice. Nature of the series: Mouse model of pancreatic cancer (pdx1-Cre-LSL-Kras) exposed to cigarette smoke: PanIN lesions and fibrosis. It counts as in vivo. To be noted: Saha 50 mg/Kg 5 times per week, TDZD-8 4 mg/Kg 3 times per week, 6 weeks; compared to control group. How it is done:
FIG. 2 depicts, in accordance with various embodiments of the invention, effect of HDAC inhibitor Saha (50 mg/Kg) and GSK3β inhibitor (4 mg/Kg) alone and in combination on reducing PanIN lesion formation.
FIG. 3 depicts, in accordance with various embodiments of the invention, effect of HDAC inhibitor Saha (50 mg/Kg) and GSK3β inhibitor (4 mg/Kg) alone and in combination on fibrosis.
The inventors used a mouse model of pancreatic cancer where an oncogene call mutant K-ras is expressed in the pancreas (pdx1-Cre-LSL-Kras). These mice were exposed to cigarette smoke for 6 weeks in smoking chambers. Groups of mice were injected with GSK3β inhibitor TDZD-8 (4 mg/Kg, 3 times per week) and/or HDAC inhibitor Saha (50 mg/Kg; 5 times per week) for 6 weeks.
The same effect was observed when measuring fibrosis with collagen staining. Fibrosis is a measure of cancer activity.

In series [10] the test system is MIA PaCa-2 pancreatic cancer cells. Nature of the series: EMT markers (vimentin, Twist, Snail) in pancreatic cancer cells. Format: cell-based. To be noted: FIG. 4. The source says: FIG. 4 depicts, in accordance with various embodiments of the invention, effect of HDAC, GSK3β inhibitions combined with gemcitabine on EMT in MIA PaCa-2 pancreatic cancer cells.
Inhibition of GSK3β induces up-regulation of EMT as shown by a measure of vimentin which is an accepted measurement for EMT (FIG. 4). This effect of GSK3β was prevented by the HDAC inhibitor Saha (FIG. 4). […] A combination of the two inhibitors with gemcitabine, a chemotherapeutic agent used in pancreatic cancer led to a complete inhibition of the EMT marker vimentin and its transcription factors (FIG. 4).

SMILES strings stand for the structures.

`O=c1sn(-c2cccc3ccccc23)c(=O)n1Cc1ccccc1` [tideglusib, 4-Benzyl-2-(naphthalen-1-yl)-1,2,4-thiadiazolidine-3,5-dione]: the cell survival result in series [1] is listed as “dose-dependent effect”.
As to `COc1ccc(Nc2nnc(-c3ccc(C(=O)NO)cc3)o2)cc1` [ALB-185357], in series [2], the “expression of EMT markers N-cadherin and twist (Western)” value is “decreases expression”; the “expression of cancer stemness marker Sox2 (Western)” value is “decreases expression”. Besides, the “cell survival (cell numbers)” value in the series with Raji lymphoma cells is recorded as “dose-dependently decreases cell survival”. In addition, the “concentration at which significance of the effect on cell survival was achieved” value in series [3] (BxPC-3, 72 h, MTT) is recorded as 300 nM. In series [3] (BxPC-3, 72 h, same concentration), the “effect on cell survival compared with combination of saha and tideglusib” value was “greater than the combination”. Moreover, the “cell survival (MTT)” value in series [3] (BxPC-3, cultured 72 h) is “dose-dependently decreased cell survival”. In [4], the “GSK-3β phosphorylation/inhibition (Western)” value was “dose-dependently up-regulates” and the “histone acetylation (Western)” value is on record as “dose-dependently up-regulates”. In addition, the “cell survival (MTT)” value in [5] was “dose-dependently decreases cell survival”. Besides, the “cell survival (MTT)” value in [6] is “dose-dependently decreases cell survival”. In the series on KPC mice, the “increase of mice survival” value was “at least 50%” and the “survival of animals with advance pancreatic cancer” value is listed as “improves survival”. The cell invasion result in series [7] is reported as “decreases the invasion”. In series [8], the “cell survival of normal cells (MTT)” value was “does not affect cell survival”. Further, in series [9], the “apoptosis (DNA fragmentation level)” value is given as “dose-dependently increases apoptosis” and the “dose at which significance of apoptosis increase was achieved” value is given as 300 nM.
In the case of `O=C(CCCCCCC(=O)Nc1ccccc1)NO` [Saha, subcroylanilide hydroxamic acid], in the series with pdx1-Cre-LSL-Kras mice, the “formation of pancreatic intraepithelial neoplasia (PanIN) lesions” value is given as “significantly decreased formation”. The cell survival result in series [1] is recorded as “dose-dependent effect”. In addition, in [10], the EMT marker vimentin result is reported as “prevented”; the “transcription factors regulating EMT (Twist and Snail)” value was “inhibited”.
